In patent US10882869B2, “Condensed heterocyclic compounds and pesticides” (NISSAN CHEMICAL CORPORATION, priority 2015, dated 2021):

How the values were obtained:
Rhipicephalus sanguineus = assay: Test on the effect on Rhipicephalus sanguineus (thin film in glass container); assay type: in vivo; details: 96 h, application dose 10 μg/cm^2, protonymphs, 4 days after release, 25° C.
Method: (§1) 350 μl of the solutions were applied to the bottoms and the side walls of glass containers with an inner wall surface area of 35 cm^2, and acetone was volatilized to prepare thin films of the compounds on the inner walls of the glass containers. Since the inner wall surface area of each glass container was 35 cm^2, the application dose was 10 μg/cm^2.
(§2) To each glass container, five protonymphs (male and female) of Rhipiceohalus sanguineus were released, and the containers were covered with lids and placed in an incubator at 25° C. 4 Days after the release of the ticks, dead ticks were counted, and the mortality was calculated by using the same equation as in Test Example 1.

Ctenocephalides felis = assay: Test on the effect on Ctenocephalides felis (thin film in glass container); assay type: in vivo; details: 96 h, application dose 10 μg/cm^2, adults, 4 days after release, 25° C.
Method: as §1
as §2, with “adults” for “protonymphs”, “Ctenocephalides felis” for “Rhipiceohalus sanguineus”, “fleas,” for “ticks,”, “fleas” for “ticks”

Plutella xylostella [1] = assay: Insecticidal test on Plutella xylostella (cabbage leaves soaked); assay type: in vivo; details: 144 h, 500 ppm solution, 3rd-instar larvae, 6 days after, 25° C.
Method: (§3) Leaves of cabbage were soaked in the solutions for about 10 seconds. After the soaking, the leaves were dried in air and placed in dishes. In each dish, five 3rd-instar larvae of Plutella xylostella were released, and the dishes were covered with lids and placed in an incubator at 25° C. 6 Days after, dead insects in the dishes were counted, and the mortality was calculated by using the same equation as in Test Example 1. The test was carried out in duplicate.

Nilaparvata lugens [2] = assay: Systemic insecticidal test on Nilaparvata lugens (rice seedling root dip); assay type: in vivo; details: 20 ppm solution, rice seedling roots dipped 7 days, 3rd-instar larvae, 6 days after release, 25° C.
Method: 7 Days after, the rice seedlings were picked and put in test tubes, and in each tube, five 3rd-instar larvae of Nilaparvata lugens were released, and the tubes were capped with sponge and placed in an incubator at 25° C. 6 Days after the release of the insects, dead insects were counted, and the mortality (%) (the number of dead insects÷the number of released insects×100) was calculated. The test was carried out in duplicate.

Spodoptera litura = assay: Insecticidal test on Spodoptera litura (cabbage leaves soaked); assay type: in vivo; details: 144 h, 500 ppm solution, 3rd-instar larvae, 6 days after, 25° C.
Method: as §3, with “Spodoptera litura” for “Plutella xylostella”

Nilaparvata lugens [3] = assay: Insecticidal test on Nilaparvata lugens (rice sheaths soaked); assay type: in vivo; details: 144 h, 500 ppm solution, 3rd-instar larvae, 6 days after, 25° C.
Method: Rice sheaths were soaked in the solutions for about 10 seconds. After the soaking, the rice sheaths were dried in air and put in test tubes. In each tube, five 3rd-instar larvae of Nilaparvata lugens were released, and the tubes were capped with sponge and placed in an incubator at 25° C. 6 Days after, dead insects in the test tubes were counted, and the mortality (%) (the number of dead insects÷the number of released insects×100) was calculated. The test was carried out in duplicate.

Myzus persicae = assay: Insecticidal test on Myzus persicae (cabbage leaf spray); assay type: in vivo; details: 144 h, 500 ppm solution sprayed (2.5 mg/cm^2), apterous adults on cabbage leaves, 6 days after, 25° C.
Method: Wet absorbent cotton was laid on glass dishes having an inner diameter of 3 cm, and covered with leaves of cabbage cut into circles of the same diameter, and 4 apterous adults of Myzus persicae were released. […] The solutions were sprayed from a rotary spray tower (2.5 mg/cm^2), and the dishes were covered with lids and placed in an incubator at 25° C. 6 Days after, dead insects were counted, and the mortality was calculated by using the same equation as in Test Example 1. The test was carried out in duplicate.

Plutella xylostella [4] = assay: Soil irrigation test on Plutella xylostella; assay type: in vivo; details: 144 h, 500 ppm solution, 10 ml soil irrigation of cabbage seedlings, leaves picked 5 days after, 3rd-instar larvae, 6 days after
Method: The soil around the bases of cabbage seedlings (at the 2.5-leaf stage) planted in plastic cups was irrigated with 10 ml of the solutions. After the irrigation, the cabbage seedlings were placed in a greenhouse. 5 Days after the irrigation, leaves of cabbage were picked and placed in dishes. In each dish, five 3rd-instar larvae of Plutella xylostella were released, and the dishes were covered with lids and placed in an incubator at 25° C. 6 Days after, dead insects in the dishes were counted, and the mortality was calculated by using the same equation as in Test Example 1. The test was carried out in duplicate.

[5] = test system: Frankliniella occidentalis; assay: Insecticidal activity on Frankliniella occidentalis (kidney bean leaf spray); assay type: in vivo; details: 48 h, 500 ppm solution sprayed (2.5 mg/cm^2), larvae on kidney bean leaves, 2 days after
Method: In styrol cups having an inner diameter of 7 cm, wet filter paper was laid, kidney bean leaves cut into a 3 cm square were laid on the paper, and each leaf was inoculated with 20 larvae of Frankliniella occidentalis. […] 2.5 ml of the solutions were sprayed from a rotary spray tower into the styrol cups (2.5 mg/cm^2).
2 Days after, dead insects were counted, and insect damage on kidney bean leaves was examined. The mortality was calculated by using the same equation as in Test Example 1.
The insect damage degree was evaluated as follows. 1: 0 to 20% insect damage, 2: 20 to 50% insect damage, 3: 50 to 70% insect damage, and 4: 70% or higher insect damge. The test was carried out in duplicate.

Bemisia argentifolii = assay: Insecticidal test on Bemisia argentifolii (kidney bean leaf spray); assay type: in vivo; details: 120 h, 500 ppm solution sprayed (2.5 mg/cm^2), adults on kidney bean leaves, 5 days after, 25° C.
Method: In styrol cups having an inner diameter of 7 cm, wet filter paper was laid, and kidney bean leaves cut to 3 cm were laid on the paper. […] The leaves were dried in air, and adults of Bemisia argentifolii were released in the cups, and the cups were covered with lids and placed in an incubator at 25° C. 5 Days after, dead insects were counted, and the mortality was calculated by using the same equation as in Test Example 1. The test was carried out in duplicate.

| SMILES | mortality at 10 µg/cm2 (Rhipicephalus sanguineus) [%] | mortality at 10 µg/cm2 (Ctenocephalides felis) [%] | mortality at 500 ppm (Plutella xylostella [1]) [%] | mortality at 20 ppm (Nilaparvata lugens [2]) [%] | mortality at 500 ppm (Spodoptera litura) [%] | melting point [°C] | mortality at 500 ppm (Nilaparvata lugens [3]) [%] | mortality at 500 ppm (Myzus persicae) [%] | pest or weed control at 500 ppm (Plutella xylostella [4]) [%] | mortality at 500 ppm [5] [%] | mortality at 500 ppm (Bemisia argentifolii) [%] |
| --- | --- | --- | --- | --- | --- | --- | --- | --- | --- | --- | --- |
| CCSc1c(-c2nc3cc(C(F)(F)F)cnc3n2C)sc2ccc(C(F)(F)F)cc12 [3-1-002b, 2-[3-(ethylthio)-5-(trifluoromethyl)benzo[b]thiophen-2-yl]-3-methyl-6-(trifluoromethyl)-3H-imidazo[4,5-b]pyridine] | ≥ 50 | ≥ 50 | ≥ 90 | ≥ 90 | ≥ 90 | – | – | – | – | – | – |
| CCSc1c(-c2nc3cc(C(F)(F)F)cnc3s2)nc2cc(C(F)(F)F)ccn12 [1-13-001b, 2-[3-(ethylthio)-7-(trifluoromethyl)imidazo[1,2-a]pyridin-2-yl]-6-(trifluoromethyl)thiazolo[5,4-b]pyridine] | – | – | – | – | – | 150 to 160 | – | – | – | – | – |
| CCS(=O)(=O)c1c(-c2nc3cc(C(F)(F)F)cnc3n2C)nc2cc(C(F)(F)F)ccn12 [1-1-002a, 2-[3-(ethylsulfonyl)-7-(trifluoromethyl)imidazo[1,2-a]pyridin-2-yl]-3-methyl-6-(trifluoromethyl)-3H-imidazo[4,5-b]pyridine] | ≥ 50 | ≥ 50 | ≥ 90 | ≥ 90 | ≥ 90 | – | ≥ 90 | ≥ 90 | ≥ 90 | – | – |
| CCS(=O)(=O)c1c(-c2nc3cc(C(F)(F)F)cnc3n2C)sc2ccc(C(F)(F)F)cc12 [3-1-002a, 2-[3-(ethylsulfonyl)-5-(trifluoromethyl)benzo[b]thiophen-2-yl]-3-methyl-6-(trifluoromethyl)-3H-imidazo[4,5-b]pyridine] | ≥ 50 | ≥ 50 | ≥ 90 | – | ≥ 90 | – | ≥ 90 | ≥ 90 | – | ≥ 50 | ≥ 90 |
| CCS(=O)(=O)c1c(-c2nc3cc(C(F)(F)F)cnc3n2C)nc2cc(C(F)(F)F)cnn12 [1-1-057a, 2-[3-(ethylsulfonyl)-7-(trifluoromethyl)imidazo[1,2-b]pyridazin-2-yl]-3-methyl-6-(trifluoromethyl)-3H-imidazo[4,5-b]pyridine] | ≥ 50 | ≥ 50 | ≥ 90 | ≥ 90 | ≥ 90 | – | ≥ 90 | ≥ 90 | ≥ 90 | ≥ 50 | – |
| CCS(=O)(=O)c1c(-c2nc3cc(C(F)(F)F)ncc3n2C)nc2cc(C(F)(F)F)ccn12 [1-8-005a, 2-[3-(ethylsulfonyl)-7-(trifluoromethyl)imidazo[1,2-a]pyridin-2-yl]-3-methyl-6-(trifluoromethyl)-3H-imidazo[4,5-c]pyridine] | ≥ 50 | ≥ 50 | ≥ 90 | ≥ 90 | ≥ 90 | – | ≥ 90 | ≥ 90 | ≥ 90 | – | – |
| CCS(=O)(=O)c1c(-c2nc3cc(C(F)(F)F)c[n+]([O-])c3n2C)nc2cc(C(F)(F)F)ccn12 [1-14-001a, 2-[3-(ethylsulfonyl)-7-(trifluoromethyl)imidazo[1,2-a]pyridin-2-yl]-3-methyl-6-(trifluoromethyl)-3H-imidazo[4,5-b]pyridine 4-oxide] | – | ≥ 50 | ≥ 90 | ≥ 90 | ≥ 90 | – | ≥ 90 | ≥ 90 | ≥ 90 | – | ≥ 90 |
| CCSc1c(-c2nc3nc(C(F)(F)F)ccc3n2C)nc2cc(C(F)(F)F)ccn12 [1-7-001b, 2-[3-(ethylthio)-7-(trifluoromethyl)imidazo[1,2-a]pyridin-2-yl]-1-methyl-5-(trifluoromethyl)-1H-imidazo[4,5-b]pyridine] | – | – | – | – | – | 164 to 166 | – | – | – | – | – |
| CC[S+]([O-])c1c(-c2nc3cc(C(F)(F)F)cnc3n2C)nc2cc(C(F)(F)F)cnn12 (stereo not shown) [1-1-057c, 2-[3-(ethylsulfinyl)-7-(trifluoromethyl)imidazo[1,2-b]pyridazin-2-yl]-3-methyl-6-(trifluoromethyl)-3H-imidazo[4,5-b]pyridine] | ≥ 50 | ≥ 50 | ≥ 90 | ≥ 90 | ≥ 90 | – | ≥ 90 | ≥ 90 | – | ≥ 50 | – |
| CCSc1c(-c2nc3cc(C(F)(F)F)cnc3n2C)nc2cnc(C(F)(F)F)cn12 [1-1-029b, 2-[3-(ethylthio)-6-(trifluoromethyl)imidazo[1,2-a]pyrazin-2-yl]-3-methyl-6-(trifluoromethyl)-3H-imidazo[4,5-b]pyridine] | – | – | – | – | – | 220 to 222 | – | – | – | – | – |
| CCSc1c(-c2nc3cc(I)cnc3n2C)nc2cc(C(F)(F)F)ccn12 [1-1-026b, 2-[3-(ethylthio)-7-(trifluoromethyl)imidazo[1,2-a]pyridin-2-yl]-6-iodo-3-methyl-3H-imidazo[4,5-b]pyridine] | – | – | – | – | – | 230 to 233 | – | – | – | – | – |
| CCCCC(CC)COC(=O)CCSc1cnc2c(c1)nc(-c1nc3cc(C(F)(F)F)ccn3c1SCC)n2C (stereo not shown) [1-1-028b, 2-ethylhexyl 3-((2-(3-(ethylthio)-7-(trifluoromethyl)imidazo[1,2-a]pyridin-2-yl)-3-methyl-3H-imidazo[4,5-b]pyridin-6-yl)thio)propanoate] | – | – | – | – | – | 94 to 96 | – | – | – | – | – |
| CCS(=O)(=O)c1c(-c2cn3cnc(C(F)(F)F)cc3n2)nc2cc(C(F)(F)F)ccn12 [1-3-001a, 2-[3-(ethylsulfonyl)-7-(trifluoromethyl)imidazo[1,2-a]pyridin-2-yl]-7-(trifluoromethyl)imidazo[1,2-c]pyrimidine] | – | ≥ 50 | ≥ 90 | ≥ 90 | ≥ 90 | – | ≥ 90 | ≥ 90 | ≥ 90 | – | ≥ 90 |
